{"source": "ChEMBL document CHEMBL1158685", "about": "“Potent CYP3A4 inhibitory constituents of Piper cubeba” (J Nat Prod, 2005)", "data": [{"target": "Cytochrome P450 2D6 (Homo sapiens, UniProt P10635)", "sequence (P10635 whole entry)": "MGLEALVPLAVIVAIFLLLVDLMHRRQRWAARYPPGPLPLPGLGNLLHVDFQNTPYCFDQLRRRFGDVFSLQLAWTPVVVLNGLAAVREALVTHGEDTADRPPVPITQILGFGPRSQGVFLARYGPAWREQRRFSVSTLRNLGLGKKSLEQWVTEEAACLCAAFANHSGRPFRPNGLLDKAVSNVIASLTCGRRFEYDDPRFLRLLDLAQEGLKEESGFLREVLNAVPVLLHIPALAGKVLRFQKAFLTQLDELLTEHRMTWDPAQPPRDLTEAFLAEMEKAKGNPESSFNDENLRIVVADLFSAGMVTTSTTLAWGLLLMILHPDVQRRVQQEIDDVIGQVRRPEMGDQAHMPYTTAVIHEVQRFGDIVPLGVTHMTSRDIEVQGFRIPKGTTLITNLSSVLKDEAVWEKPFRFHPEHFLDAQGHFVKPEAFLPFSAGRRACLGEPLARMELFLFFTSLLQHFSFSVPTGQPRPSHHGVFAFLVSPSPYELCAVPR", "assay": "Inhibition of human liver microsome CYP2D6 in assessed as [14C]formaldehyde formation", "type": "ADME, microsomes", "units": {"IC50": "µM"}, "values": [{"compound": "O=C1OC[C@H](Cc2ccc3c(c2)OCO3)[C@H]1Cc1ccc2c(c1)OCO2", "note": "[HINOKININ]", "IC50": 26.5}, {"compound": "COc1cc(C[C@H]2COC(=O)[C@@H]2Cc2cc(OC)c3c(c2)OCO3)cc(OC)c1O", "IC50": "> 100"}, {"compound": "COc1cc(C[C@H]2COC(O)[C@@H]2Cc2cc(OC)c(OC)c(OC)c2)cc(OC)c1OC", "note": "(stereo not given in full)", "IC50": "> 100"}, {"compound": "COc1cc(OC)c(OC)cc1CC(C)=O", "IC50": "> 100"}, {"compound": "COc1cc(OC)c([C@@H]2[C@H](C)[C@@H](C)[C@H]2c2cc(OC)c(OC)cc2OC)cc1OC", "note": "[MAGNOSALIN]", "IC50": "> 100"}, {"compound": "OC[C@H](Cc1ccc2c(c1)OCO2)[C@H](CO)Cc1ccc2c(c1)OCO2", "note": "[DIHYDROCUBEBIN]", "IC50": 17.5}, {"compound": "CC1=CC(=O)C2=C(C)C[C@@H]3OC(=O)C(C)=C3C[C@@H]12", "IC50": "> 100"}, {"compound": "CC1=C[C@@H](O)[C@@]23O[C@]2(C)C[C@@H]2OC(=O)C(C)=C2C[C@@H]13", "IC50": "> 100"}, {"compound": "COc1cc(C[C@H]2C(O)OC[C@@H]2Cc2ccc3c(c2)OCO3)cc(OC)c1OC", "note": "(stereo not given in full)", "IC50": "> 100"}, {"compound": "COc1cc(C[C@@H]2[C@@H](Cc3cc(OC)c4c(c3)OCO4)CO[C@@H]2O)cc(OC)c1OC", "IC50": "> 100"}, {"compound": "COc1cc(C[C@H]2COC(=O)[C@@H]2Cc2cc(OC)c(OC)c(OC)c2)cc(OC)c1OC", "IC50": "> 100"}, {"compound": "COc1cc([C@H]2OC[C@@H]3C(c4cc(OC)c(O)c(OC)c4)OC[C@H]23)ccc1O", "note": "(stereo not given in full) [MEDIORESINOL]", "IC50": "> 100"}, {"compound": "COc1cc(C[C@@H](CO)[C@H](CO)Cc2ccc3c(c2)OCO3)cc(OC)c1OC", "IC50": "> 100"}, {"compound": "C/C=C/c1cc(OC)c(OC)cc1OC", "note": "[TRANS-ASARONE]", "IC50": "> 100"}, {"compound": "CCOc1cc(C[C@H]2COC(O)[C@@H]2Cc2cc(OC)c(OC)c(OC)c2)cc2c1OCO2", "note": "(stereo not given in full) [ETHOXYCLUSIN]", "IC50": 87.9}, {"compound": "COc1cc(C[C@H]2C(=O)OC[C@@H]2Cc2ccc3c(c2)OCO3)cc(OC)c1OC", "IC50": 95.7}, {"compound": "O[C@H]1OC[C@H](Cc2ccc3c(c2)OCO3)[C@H]1Cc1ccc2c(c1)OCO2", "IC50": 35.5}, {"compound": "CO[C@@H]1OC[C@H](Cc2ccc3c(c2)OCO3)[C@H]1Cc1ccc2c(c1)OCO2", "IC50": "> 100"}]}, {"target": "Cytochrome P450 3A4 (Homo sapiens, UniProt P08684)", "sequence (P08684 whole entry)": "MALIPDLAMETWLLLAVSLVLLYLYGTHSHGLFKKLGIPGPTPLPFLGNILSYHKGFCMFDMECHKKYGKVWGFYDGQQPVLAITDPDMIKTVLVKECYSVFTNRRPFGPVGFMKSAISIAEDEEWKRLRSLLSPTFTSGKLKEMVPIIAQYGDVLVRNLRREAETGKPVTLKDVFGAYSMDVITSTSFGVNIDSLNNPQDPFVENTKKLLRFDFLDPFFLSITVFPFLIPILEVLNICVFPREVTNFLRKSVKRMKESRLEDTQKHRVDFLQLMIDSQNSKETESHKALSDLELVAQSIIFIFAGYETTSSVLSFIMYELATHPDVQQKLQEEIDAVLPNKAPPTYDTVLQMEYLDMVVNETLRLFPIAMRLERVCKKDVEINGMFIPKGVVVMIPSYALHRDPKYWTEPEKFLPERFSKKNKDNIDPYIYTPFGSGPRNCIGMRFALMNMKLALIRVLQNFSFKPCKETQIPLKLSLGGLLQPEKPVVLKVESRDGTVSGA", "assay": "Inhibition of human liver microsome CYP3A4 in assessed as [14C]formaldehyde formation", "type": "ADME, microsomes", "units": {"IC50": "µM"}, "values": [{"compound": "O=C1OC[C@H](Cc2ccc3c(c2)OCO3)[C@H]1Cc1ccc2c(c1)OCO2", "note": "[HINOKININ]", "IC50": 8}, {"compound": "COc1cc(C[C@H]2COC(O)[C@@H]2Cc2cc(OC)c(OC)c(OC)c2)cc(OC)c1OC", "note": "(stereo not given in full)", "IC50": 15}, {"compound": "COc1cc(OC)c(OC)cc1CC(C)=O", "IC50": 28.7}, {"compound": "COc1cc(OC)c([C@@H]2[C@H](C)[C@@H](C)[C@H]2c2cc(OC)c(OC)cc2OC)cc1OC", "note": "[MAGNOSALIN]", "IC50": 85.4}, {"compound": "OC[C@H](Cc1ccc2c(c1)OCO2)[C@H](CO)Cc1ccc2c(c1)OCO2", "note": "[DIHYDROCUBEBIN]", "IC50": 9.5}, {"compound": "CC1=CC(=O)C2=C(C)C[C@@H]3OC(=O)C(C)=C3C[C@@H]12", "IC50": 8.8}, {"compound": "CC1=C[C@@H](O)[C@@]23O[C@]2(C)C[C@@H]2OC(=O)C(C)=C2C[C@@H]13", "IC50": 98.2}, {"compound": "COc1cc(C[C@H]2C(O)OC[C@@H]2Cc2ccc3c(c2)OCO3)cc(OC)c1OC", "note": "(stereo not given in full)", "IC50": 0.83}, {"compound": "COc1cc(C[C@@H]2[C@@H](Cc3cc(OC)c4c(c3)OCO4)CO[C@@H]2O)cc(OC)c1OC", "IC50": 0.83}, {"compound": "COc1cc(C[C@H]2COC(=O)[C@@H]2Cc2cc(OC)c(OC)c(OC)c2)cc(OC)c1OC", "IC50": 14.9}, {"compound": "COc1cc([C@H]2OC[C@@H]3C(c4cc(OC)c(O)c(OC)c4)OC[C@H]23)ccc1O", "note": "(stereo not given in full) [MEDIORESINOL]", "IC50": 13.7}, {"compound": "COc1cc(C[C@@H](CO)[C@H](CO)Cc2ccc3c(c2)OCO3)cc(OC)c1OC", "IC50": 0.8}, {"compound": "C/C=C/c1cc(OC)c(OC)cc1OC", "note": "[TRANS-ASARONE]", "IC50": 92.3}, {"compound": "CCOc1cc(C[C@H]2COC(O)[C@@H]2Cc2cc(OC)c(OC)c(OC)c2)cc2c1OCO2", "note": "(stereo not given in full) [ETHOXYCLUSIN]", "IC50": 0.44}, {"compound": "COc1cc(C[C@H]2C(=O)OC[C@@H]2Cc2ccc3c(c2)OCO3)cc(OC)c1OC", "IC50": 1}, {"compound": "O[C@H]1OC[C@H](Cc2ccc3c(c2)OCO3)[C@H]1Cc1ccc2c(c1)OCO2", "IC50": 9.1}, {"compound": "CO[C@@H]1OC[C@H](Cc2ccc3c(c2)OCO3)[C@H]1Cc1ccc2c(c1)OCO2", "IC50": 7.7}]}]}
